Data published in patent publication US9789181B2, “PAN-DR binding polypeptides and uses thereof” (Epimmune Inc., priority 2009, dated 2017).
Where no end group is shown, it is not given here.

Biological target: purified HLA DRB1 *0301 (Homo sapiens, UniProt P01903+P01911, A100K/A102G/A103R/A169T/F55Y/I96L/K41T/L162R/M171V/P40S/Q125H/Q178H/Q39Y/R42S/S66N/T106N/T262R/W38E/Y61H)
Experiment: IC50nM to purified HLA | DRB1 *0301
Description: (§1) Table printed on a drawing sheet, FIG. 1
Head of the field: IC50nM to purified HLA | DRB1 *0301
(§2) First copying reader's note: The comma is the decimal sign and the point a thousands separator (e.g. 21.831); some values are printed bold or italic and some SEQ ID NOs underlined, with no legend on the sheet.
Where the first naming reader finds the target: head: IC50nM to purified HLA | DRB1 *0301

Chain of purified HLA DRB1 *0301 (P01903 26-254 limits assumed, other chains not shown): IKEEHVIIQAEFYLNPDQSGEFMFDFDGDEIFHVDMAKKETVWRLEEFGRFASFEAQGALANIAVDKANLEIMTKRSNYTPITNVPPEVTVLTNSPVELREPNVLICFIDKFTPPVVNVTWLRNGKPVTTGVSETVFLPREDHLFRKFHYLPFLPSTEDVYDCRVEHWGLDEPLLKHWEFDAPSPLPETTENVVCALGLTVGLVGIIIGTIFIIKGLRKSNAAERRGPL

AAAWFVAAFTLHAAA [SEQ ID NO: 9] and AAAFFVAAYTLHAAA [SEQ ID NO: 13] are within 1.5-fold of each other in IC50: 139 nM for the first, 151 nM for the second.

AAAYFVAANTLHAAA [SEQ ID NO: 24] and AAAFFVAAWTLHAAA [SEQ ID NO: 12] are within 1.5-fold of each other in IC50: 130 nM for the first, 129 nM for the second.

Going from AAAHFVAAYTLHAAA [SEQ ID NO: 27] to AAAYFVAAWTLHAAA [SEQ ID NO: 21], the IC50 falls from 214 nM to 119 nM (1.8-fold).

Biological target: purified HLA DRB1 *0701 (Homo sapiens, UniProt P01903+P01911, A100R/A102G/A103Q/D57E/D86V/E43K/F76Y/K127E/L162R/M171V/P40G/Q125H/Q99D/R33Q/R42Y/R54Q/S133A/S66F/T210M/V115G/Y107V/Y59L/Y89S)
Experiment: IC50nM to purified HLA | DRB1 *0701
Description: as §1
Head of the field: IC50nM to purified HLA | DRB1 *0701
as §2
Where the first naming reader finds the target: head: IC50nM to purified HLA | DRB1 *0701

AAAWFVAAFTLHAAA [SEQ ID NO: 9] and AAAFFVAAYTLHAAA [SEQ ID NO: 13] are within 1.5-fold of each other in IC50: 69 nM for the first, 54 nM for the second.

AAAYFVAANTLHAAA [SEQ ID NO: 24] and AAAFFVAAWTLHAAA [SEQ ID NO: 12] are within 1.5-fold of each other in IC50: 49 nM for the first, 60 nM for the second.

Compared with AAAHFVAAYTLHAAA [SEQ ID NO: 27], AAAYFVAAWTLHAAA [SEQ ID NO: 21] is 1.7-fold lower in IC50: 94 nM for the first, 55 nM for the second. The second is the more potent here.

Biological target: purified HLA DRB1 *0404 (Homo sapiens, UniProt P01903+P01911, A100R/A169T/F76Y/I96L/K127E/L162R/M171V/N62H/P40V/Q125Y/R42H/S133A/S149N/S66Y/V209L/W38E)
Experiment: IC50nM to purified HLA | DRB1 *0404
Description: as §1
Head of the field: IC50nM to purified HLA | DRB1 *0404
as §2
Where the first naming reader finds the target: head: IC50nM to purified HLA | DRB1 *0404

Going from AAAFFVAAYTLHAAA [SEQ ID NO: 13] to AAAYFVAANTLHAAA [SEQ ID NO: 24], the IC50 rises from 2.3 nM to 5.2 nM (2.3-fold). The first is the more potent here.

Compared with AAAFFVAAWTLHAAA [SEQ ID NO: 12], AAAHFVAAYTLHAAA [SEQ ID NO: 27] is 2-fold higher in IC50: 2.9 nM for the first, 5.7 nM for the second. The first is the more potent here.

Biological target: purified HLA DRB5 *0101 (Homo sapiens, UniProt P01903+Q30154)
Experiment: IC50nM to purified HLA | DRB5 *0101
Description: as §1
Head of the field: IC50nM to purified HLA | DRB5 *0101
as §2
Where the first naming reader finds the target: head: IC50nM to purified HLA | DRB5 *0101

Going from AAAWFVAAFTLHAAA [SEQ ID NO: 9] to AAAFFVAAYTLHAAA [SEQ ID NO: 13], the IC50 falls from 30 nM to 11 nM (2.7-fold). The second is the more potent here.

In the case of AAAHFVAAYTLHAAA [SEQ ID NO: 27], the IC50 is reported as 30 nM.

Biological target: purified HLA DRB1 *1501 (Homo sapiens, UniProt P01903+P01911)
Experiment: IC50nM to purified HLA | DRB1 *1501
Description: as §1
Head of the field: IC50nM to purified HLA | DRB1 *1501
as §2
Where the first naming reader finds the target: head: IC50nM to purified HLA | DRB1 *1501

First: AAAWFVAAFTLHAAA [SEQ ID NO: 9]
Second: AAAFFVAAYTLHAAA [SEQ ID NO: 13]
The IC50 of the first is 7.9-fold higher: 38 nM for the first, 4.8 nM for the second. The second is the more potent here.

Going from AAAYFVAANTLHAAA [SEQ ID NO: 24] to AAAFFVAAWTLHAAA [SEQ ID NO: 12], the IC50 falls from 53 nM to 25 nM (2.1-fold). The second is the more potent here.

With AAAHFVAAYTLHAAA [SEQ ID NO: 27] the IC50 was 4.2 nM.

Biological target: purified HLA DRB1 *1302 (Homo sapiens, UniProt P01903+P01911, A100E/A169T/K41T/L162R/M171V/P40S/Q125H/Q178H/Q39Y/Q99D/R42S/S66N/T262R/V115G/W38E/Y61H)
Experiment: IC50nM to purified HLA | DRB1 *1302
Description: as §1
Head of the field: IC50nM to purified HLA | DRB1 *1302
as §2
Where the first naming reader finds the target: head: IC50nM to purified HLA | DRB1 *1302

Chain of purified HLA DRB1 *1302 (P01903 26-254 limits assumed, other chains not shown): as above

First: AAAYFVAANTLHAAA [SEQ ID NO: 24]
Second: AAAHFVAAYTLHAAA [SEQ ID NO: 27]
The IC50 of the first is 24-fold lower: 54 nM for the first, 1320 nM for the second. The first is the more potent here.

Biological target: purified HLA DRB1 *0405 (Homo sapiens, UniProt P01903+P01911, A100R/A169T/D86S/F76Y/I96L/K127E/L162R/M171V/N62H/P40V/Q125Y/R42H/S133A/S149N/S66Y/V115G/V209L/W38E)
Experiment: IC50nM to purified HLA | DRB1 *0405
Description: as §1
Head of the field: IC50nM to purified HLA | DRB1 *0405
as §2
Where the first naming reader finds the target: head: IC50nM to purified HLA | DRB1 *0405

Compared with AAAFFVAAYTLHAAA [SEQ ID NO: 13], AAAYFVAAWTLHAAA [SEQ ID NO: 21] is 2.8-fold lower in IC50: 19 nM for the first, 6.9 nM for the second. The second is the more potent here.

Biological target: purified HLA DRB1 *0101 (Homo sapiens, UniProt P01903+P01911, A100R/D57E/F55L/F60I/F76Y/I96L/L162R/M171V/P40L/Q125E/R42F/V115G/Y59C)
Experiment: IC50nM to purified HLA | DRB1 *0101
Description: as §1
Head of the field: IC50nM to purified HLA | DRB1 *0101
as §2
Where the first naming reader finds the target: head: IC50nM to purified HLA | DRB1 *0101

AAAWFVAAFTLHAAA [SEQ ID NO: 9] and AAAFFVAAYTLHAAA [SEQ ID NO: 13] are within 1.5-fold of each other in IC50: 5.3 nM for the first, 4.4 nM for the second.

AAAYFVAANTLHAAA [SEQ ID NO: 24] and AAAFFVAAWTLHAAA [SEQ ID NO: 12] are within 1.5-fold of each other in IC50: 4.5 nM for the first, 3.6 nM for the second.

AAAHFVAAYTLHAAA [SEQ ID NO: 27] and AAAYFVAAWTLHAAA [SEQ ID NO: 21] are within 1.5-fold of each other in IC50: 3.8 nM for the first, 3.7 nM for the second.

Biological target: purified HLA DRB1 *0802 (Homo sapiens, UniProt P01903+P01911, A100R/A103L/A169T/F76Y/H45Y/I96F/K41T/L162R/M171V/P40S/Q125H/Q178H/Q39Y/Q99D/R218S/R42G/S66Y/V115G/W38E)
Experiment: IC50nM to purified HLA | DRB1 *0802
Description: as §1
Head of the field: IC50nM to purified HLA | DRB1 *0802
as §2
Where the first naming reader finds the target: head: IC50nM to purified HLA | DRB1 *0802

AAAFFVAAYTLHAAA [SEQ ID NO: 13] and AAAFFVAAWTLHAAA [SEQ ID NO: 12] are within 1.5-fold of each other in IC50: 7.4 nM for the first, 7.8 nM for the second.

AAAHFVAAYTLHAAA [SEQ ID NO: 27] and AAAYFVAAWTLHAAA [SEQ ID NO: 21] are within 1.5-fold of each other in IC50: 11 nM for the first, 9.7 nM for the second.

Biological target: purified HLA DRB1 *0401 (Homo sapiens, UniProt P01903+P01911, A100K/A169T/F76Y/I96L/K127E/L162R/M171V/N62H/P40V/Q125Y/R42H/S133A/S149N/S66Y/V115G/V209L/W38E)
Experiment: IC50nM to purified HLA | DRB1 *0401
Description: as §1
Head of the field: IC50nM to purified HLA | DRB1 *0401
as §2
Where the first naming reader finds the target: head: IC50nM to purified HLA | DRB1 *0401

Going from AAAWFVAAFTLHAAA [SEQ ID NO: 9] to AAAFFVAAYTLHAAA [SEQ ID NO: 13], the IC50 falls from 3.1 nM to 1.7 nM (1.8-fold).

AAAYFVAANTLHAAA [SEQ ID NO: 24] and AAAFFVAAWTLHAAA [SEQ ID NO: 12] are within 1.5-fold of each other in IC50: 3.3 nM for the first, 2.2 nM for the second.

AAAHFVAAYTLHAAA [SEQ ID NO: 27] was tested, and the IC50 was 3.4 nM.

Biological target: purified HLA DRB4 *0101 (Homo sapiens, UniProt P01903+P13762, G164S)
Experiment: IC50nM to purified HLA | DRB4 *0101
Description: as §1
Head of the field: IC50nM to purified HLA | DRB4 *0101
as §2
Where the first naming reader finds the target: head: IC50nM to purified HLA | DRB4 *0101

Chain of purified HLA DRB4 *0101 (P01903 26-254 limits assumed): as the sequence (P01903 26-254 limits assumed, other chains not shown) above
Chain of purified HLA DRB4 *0101 (P13762 whole entry G164S): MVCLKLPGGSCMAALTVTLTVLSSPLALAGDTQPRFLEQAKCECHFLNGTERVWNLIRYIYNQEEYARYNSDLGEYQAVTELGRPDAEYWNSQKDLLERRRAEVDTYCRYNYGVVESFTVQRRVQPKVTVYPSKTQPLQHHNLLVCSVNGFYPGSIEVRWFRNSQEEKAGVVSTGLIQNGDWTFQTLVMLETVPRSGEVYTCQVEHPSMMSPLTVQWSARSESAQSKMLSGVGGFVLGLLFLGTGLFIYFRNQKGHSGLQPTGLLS

Compared with AAAWFVAAFTLHAAA [SEQ ID NO: 9], AAAFFVAAYTLHAAA [SEQ ID NO: 13] is 7-fold higher in IC50: 115 nM for the first, 805 nM for the second.

First: AAAYFVAANTLHAAA [SEQ ID NO: 24]
Second: AAAFFVAAWTLHAAA [SEQ ID NO: 12]
The IC50 of the first is 1.6-fold higher: 703 nM for the first, 440 nM for the second. The second is the more potent here.

Compared with AAAHFVAAYTLHAAA [SEQ ID NO: 27], AAAYFVAAWTLHAAA [SEQ ID NO: 21] is 1.9-fold lower in IC50: 526 nM for the first, 279 nM for the second.
